These results are taken from patent US6812346B2, “Substituted pyridines as selective cyclooxygenase-2 inhibitors” (Merck Frosst Canada and Co., priority 1996, dated 2004).

Read-outs that look alike come from different tables or passages of the source. Some results are limits rather than exact numbers.

Experiment [1] has as its system carrageenan-induced rat paw edema. The experiment is described as follows: Rat paw edema assay. The experiment is classed as in vivo. The note with it: male Sprague-Dawley rats, po, 1 hr before carrageenan, paw volume 3 hr later; for ED50: Rattus norvegicus. Here is the method:
Male Sprague-Dawley rats (150-200 g) are fasted overnight and are given, po, either vehicle (1% methocel or 5% Tween 80) or a test compound. One hr later, a line is drawn using a permanent marker at the level above the ankle in one hind paw to define the area of the paw to be monitored. The paw volume (V0) is measured using a plethysmometer (Ugo-Basile, Italy) based on the principle of water displacement. The animals are then injected subplantarly with 50 μl of 1% carrageenan solution in saline (FMC Corp, Maine) into the paw using an insulin syringe with a 25-gauge needle (i.e. 500 μg carrageenan per paw). Three hr later, the paw volume (V3) is measured and the increases in paw volume (V3-V0) are calculated. The animals are sacrificed by CO2 asphyxiation and the absence or presence of stomach lesions scored. Data is compared with the vehicle-control values and percent inhibition calculated. All treatment groups are coded to eliminate observer bias.
For orientation: The carrageenan paw model is a standard test of acute inflammation.

A further experiment has as its target T1, COX-2 (Homo sapiens, UniProt P35354).
T1 sequence (P35354 18-604): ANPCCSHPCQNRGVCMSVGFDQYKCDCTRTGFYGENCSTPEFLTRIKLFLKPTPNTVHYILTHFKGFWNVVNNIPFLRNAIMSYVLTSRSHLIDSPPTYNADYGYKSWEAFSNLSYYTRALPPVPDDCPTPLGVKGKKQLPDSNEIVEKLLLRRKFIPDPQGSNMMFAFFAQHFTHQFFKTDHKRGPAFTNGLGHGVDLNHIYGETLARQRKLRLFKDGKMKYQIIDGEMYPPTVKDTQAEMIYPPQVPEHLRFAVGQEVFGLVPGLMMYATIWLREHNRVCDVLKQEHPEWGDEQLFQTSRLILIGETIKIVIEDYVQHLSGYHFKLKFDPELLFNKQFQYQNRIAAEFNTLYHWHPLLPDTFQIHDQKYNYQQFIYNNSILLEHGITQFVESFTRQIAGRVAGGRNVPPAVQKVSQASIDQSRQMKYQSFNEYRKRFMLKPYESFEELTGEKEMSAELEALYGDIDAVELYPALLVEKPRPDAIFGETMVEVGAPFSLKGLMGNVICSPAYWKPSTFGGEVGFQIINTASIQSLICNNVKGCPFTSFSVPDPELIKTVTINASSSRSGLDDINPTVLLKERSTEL
The experiment is described as follows: Human whole blood assay, COX-2 (LPS-induced PGE2 production). In kind it is cell-based. An excerpt:
As well, platelets in whole blood contain a large amount of the COX-1 enzyme. Immediately following blood clotting, platelets are activated through a thrombin-mediated mechanism. This reaction results in the production of thromboxane B2 (TxB2) via activation of COX-1. Thus, the effect of test compounds on TxB2 levels following blood clotting can be examined and used as an index for COX-1 activity. Therefore, the degree of selectivity by the test compound can be determined by measuring the levels of PGE2 after LPS induction (COX-2) and TxB2 following blood clotting (COX-1) in the same assay.
Step A: COX-2 (LPS-induced PGE2 Production)
Fresh blood is collected in heparinized tubes by venipuncture from both male and female volunteers. The subjects have no apparent inflammatory conditions and have not taken any NSAIDs for at least 7 days prior to blood collection. Plasma is immediately obtained from a 2 mL blood aliquot to use as blank (basal levels of PGE2).

Another experiment addresses T2, COX-1 (Homo sapiens, UniProt P23219).
T2 construct: Assay of COX-1 Activity from U937 Cell Microsomes; endogenous in cells; host or cells: U937 cells, 100,000 x g microsomal fraction
In words: Cox-1 U937 (COX-1 activity from U937 cell microsomes). In kind it is biochemical. The note with it: U937, PGE2 synthesis in presence of AA. Here is the method: Assay of COX-1 Activity from U937 Cell Microsomes
U 937 cells are pelleted by centrifugation at 500×g for 5 min and washed once with phosphate-buffered saline and repelleted. Cells are resuspended in homogenization buffer consisting of 0.1 M Tris-HCl, pH 7.4, 10 mM EDTA, 2 μg/ml leupeptin, 2 μg/ml soybean trypsin inhibitor, 2 μg/ml aprotinin and 1 mM phenyl methyl sulfonyl fluoride. The cell suspension is sonicated 4 times for 10 sec and is centrifuged at 10,000×g for 10 min at 4° C. The supernatant is centrifuged at 100,000×g for 1 hr at 4° C. The 100,000×g microsomal pellet is resuspended in 0.1 M Tris-HCl, pH 7.4, 10 mM EDTA to approximately 7 mg protein/ml and stored at −80° C.
Assays are performed in duplicate in a final volume of 250 μl. Initially, 5 μl of DMSO vehicle or drug in DMSO are added to 20 μl of 0.1 M Tris-HCl buffer, pH 7.4 containing 10 mM EDTA in wells of a 96-deepwell polypropylene titre plate. 200 μl of the microsomal preparation are then added and pre-incubated for 15 min at room temperature before addition of 25 μl of […] in […] Tris-HCl and 10 mM EDTA, pH 7.4. Samples are incubated for 40 min at room temperature and the reaction is stopped by the addition of 25 μl of 1 N HCl. Samples are neutralized with 25 μl of 1 N NaOH prior to quantitation of PGE2 content by radioimmunoassay (Dupont-NEN or Amersham assay kits). Cyclooxygenase activity is defined as the difference between PGE2 levels in samples incubated in the presence of arachidonic acid and ethanol vehicle.

Where [2] appears, read: human whole blood, LPS-induced PGE2 production, 24 hours at 37° C., read-out: Cox-2 Whole Blood (IC50).
Where [3] appears, read: Cox-1 U937 IC50 over Cox-2 whole blood IC50.

T2 sequence (P23219 24-599): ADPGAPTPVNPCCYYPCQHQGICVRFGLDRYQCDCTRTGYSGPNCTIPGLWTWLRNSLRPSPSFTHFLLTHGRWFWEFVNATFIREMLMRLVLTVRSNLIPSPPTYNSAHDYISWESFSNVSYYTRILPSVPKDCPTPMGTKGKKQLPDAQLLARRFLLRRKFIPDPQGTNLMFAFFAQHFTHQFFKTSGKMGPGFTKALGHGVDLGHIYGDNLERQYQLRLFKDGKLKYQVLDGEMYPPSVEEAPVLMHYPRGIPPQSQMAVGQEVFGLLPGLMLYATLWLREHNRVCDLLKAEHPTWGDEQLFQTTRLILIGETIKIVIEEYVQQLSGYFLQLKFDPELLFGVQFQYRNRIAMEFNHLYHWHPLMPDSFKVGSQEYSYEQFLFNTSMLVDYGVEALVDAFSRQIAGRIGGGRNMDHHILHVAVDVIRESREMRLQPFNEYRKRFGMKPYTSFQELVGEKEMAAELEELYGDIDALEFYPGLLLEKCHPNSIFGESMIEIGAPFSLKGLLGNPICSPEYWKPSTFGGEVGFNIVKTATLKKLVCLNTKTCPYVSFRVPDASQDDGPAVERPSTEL

A word on the ED50: it is the dose at which the effect has come halfway, by size or by number of responders. The low end stands for an effect at a small dose, the high end for a need for a large dose. The molecule `CS(=O)(=O)c1ccc(-c2cccnc2-c2ccccc2)cc1` [Aa, reference compound] came in with an ED50 in experiment [1] above 10 mg/kg.

Usually IC50 stands for the midpoint of a concentration-inhibition curve. For `CS(=O)(=O)c1ccc(-c2cccnc2-c2ccc(F)cc2)cc1` [Ab, reference compound], the 50% inhibitory concentration (IC50) stood at 4900 nM on COX-2 (setting [2]) and 2200 nM at COX-1.

`CS(=O)(=O)c1ccc(-c2cc(C(F)(F)F)cnc2-c2ccccc2)cc1` [Example 1, 3-(4-Methylsulfonyl)phenyl-2-phenyl-5-trifluoromethylpyridine]: the ED50 in experiment [1] amounted to 5.4 mg/kg. The “Selectivity Ratio” value on COX-2 (setting [3]) is reported as 4.4. Besides, the IC50 on COX-2 (setting [2]) was 300 nM; on COX-1, 1500 nM.

For `CS(=O)(=O)c1ccc(-c2cc(C(F)(F)F)cnc2-c2ccc(Cl)cc2)cc1` [Example 3, 2-(4-Chlorophenyl)-3-(4-methylsulfonyl)phenyl-5-trifluoromethylpyridine], the “Selectivity Ratio” value on COX-2 (setting [3]) is on record as 2. The IC50 at COX-2 (setting [2]) was found to be 900 nM; at COX-1, 1800 nM.

As to `CS(=O)(=O)c1ccc(-c2cc(C(F)(F)F)cnc2-c2ccc(F)cc2)cc1` [Example 4, 2-(4-Fluorophenyl)-3-(4-methylsulfonyl)phenyl-5-trifluoromethylpyridine], the “Selectivity Ratio” value on COX-2 (setting [3]) was 3.3. Also, the results for the IC50 at COX-2 (setting [2]) and at COX-1 were 300 nM and 1000 nM, respectively.

With `CS(=O)(=O)c1ccc(-c2cc(C(F)(F)F)cnc2-c2cccnc2)cc1` [Example 7, 3-(4-Methylsulfonyl)phenyl-2-(3-pyridinyl)-5-trifluoromethylpyridine], at COX-1, the IC50 was found to be 5000 nM.

For the molecule `Cc1cnc(-c2ccccc2)c(-c2ccc(S(C)(=O)=O)cc2)c1` [Example 13, 5-Methyl-3-(4-methylsulfonyl)phenyl-2-phenylpyridine], the “Selectivity Ratio” value at COX-2 (setting [3]) was found to be 6. The IC50 at COX-2 (setting [2]) amounted to 500 nM; at COX-1 it was 3000 nM.

In the case of `Cc1cnc(-c2ccc(Cl)cc2)c(-c2ccc(S(C)(=O)=O)cc2)c1` [Example 14, 2-(4-Chlorophenyl)-5-methyl-3-(4-methylsulfonyl)phenylpyridine], the “Selectivity Ratio” value at COX-2 (setting [3]) is on record as 2. The IC50 at COX-2 (setting [2]) turned out to be 700 nM; at COX-1, 1400 nM.

In experiment [1], `CS(=O)(=O)c1ccc(-c2cc(Cl)cnc2-c2cccnc2)cc1` [Example 21, 5-Chloro-3-(4-methylsulfonyl)phenyl-2-(3-pyridinyl)pyridine] displayed an ED50 of 2.3 mg/kg. For the same molecule, the “Selectivity Ratio” value at COX-2 (setting [3]) was determined as 16. Also, the IC50 on COX-2 (setting [2]) is 1000 nM; at COX-1, 16000 nM.

`Cc1ccc(-c2ncc(Cl)cc2-c2ccc(S(C)(=O)=O)cc2)cn1` [Example 23, 5-Chloro-3-(4-methylsulfonyl)phenyl-2-(2-methyl-5-pyridinyl)pyridine]: on COX-1, the 50% inhibitory concentration (IC50) is above 10000 nM.

On to `CS(=O)(=O)c1ccc(-c2cc(Br)cnc2-c2cccnc2)cc1` [Example 32], for which, in experiment [1], the ED50 amounted to 0.9 mg/kg. Besides, the IC50 on COX-2 (setting [2]) is 1200 nM; at COX-1, above 10000 nM.

For `CS(=O)(=O)c1ccc(-c2cc(C#N)cnc2-c2ccc(Cl)cc2)cc1` [Example 45, 5-Cyano-2-(4-chlorophenyl)-3-(4-methylsulfonyl)phenylpyridine], the 50% effect level in experiment [1] (ED50) was put at a dose of 3 mg/kg. Further, the “Selectivity Ratio” value on COX-2 (setting [3]) is listed as above 4.5. The IC50 at COX-2 (setting [2]) is 2200 nM; on COX-1, above 10000 nM.

With `CS(=O)(=O)O.CS(=O)(=O)c1ccc(-c2cc(Cl)cnc2-c2cccnc2)cc1` [Example 46, 5-Chloro-3-(4-methylsulfonyl)phenyl-2-(3-pyridyl)pyridine hydromethanesulfonate], the “Rat Paw Edema (ED50, mg/kg)” value in experiment [1] is given as 3.3 mg/kg.

On to `CS(=O)(=O)c1ccc(-c2cc(Cl)cnc2-c2cccnc2)cc1.Cl` [Example 47, 5-Chloro-3-(4-methylsulfonyl)phenyl-2-(3-pyridyl)pyridine hydrochloride], for which, in experiment [1], the “Rat Paw Edema (ED50, mg/kg)” value turned out to be 2.4 mg/kg.

With `Cc1ccc(-c2ncc(Cl)cc2-c2ccc(S(C)(=O)=O)cc2)cn1.Cl` [Example 59, 5-Chloro-3-(4-methylsulfonyl)phenyl-2-(2-methyl-5-pyridinyl)pyridine Hydrochloride], the “Rat Paw Edema (ED50, mg/kg)” value in experiment [1] is on record as 0.8 mg/kg.

`CCc1ccc(-c2ncc(Cl)cc2-c2ccc(S(C)(=O)=O)cc2)cn1` [Example 71, 5-Chloro-3-(4-methylsulfonyl)phenyl-2-(2-ethyl-5-pyridinyl)pyridine]: the median effective dose (ED50) in experiment [1] is 1.6 mg/kg. Further, on COX-1, the IC50 was above 10000 nM.

Take `CS(=O)(=O)c1ccc(-c2cc(Cl)cnc2-c2ccc(C3CC3)nc2)cc1` [Example 73, 5-Chloro-3-(4-methylsulfonyl)phenyl-2-(2-cyclopropyl-5-pyridinyl)pyridine]: the ED50 in experiment [1] came to 2 mg/kg. Besides, at COX-2, the IC50 amounted to 1800 nM and the “Selectivity Ratio” value is given as 3.8. The IC50 at COX-1 amounted to 7000 nM.
